Data published in the NIST ThermoML archive (doi:10.1016/j.jct.2015.07.039).
Numbers after ± are expanded uncertainties.

How the values were obtained:
[1] = refractive index (Na D-line) (dimensionless); details: 298.15 K; 101.33 kPa; Liquid; Standard Abbe refractometry
[2] = 298.15 K; 101.33 kPa; Liquid; Vibrating tube method

CCCCl [1-chloropropane]
refractive index [1]: 1.38526 ± 0.00032
mass density [2]: 883.81 ± 0.16 kg/m3
